Measurements as given in patent publication US10752588B2 (The Broad Institute, Inc., priority 2014, dated 2020).
Values after ≈ are worked out from the molar mass of the structure shown. Read-outs that look alike come from different tables or passages of the source.

Legend:
human D2R/β-arrestin [1] = molecular target: T1, human D2R/β-arrestin (Homo sapiens (Human), UniProt P14416); assay: β-Arrestin agonist assay (PathHunter); assay type: cell-based; settings: CHO-K1 cell line expressing human D2R/β-arrestin
T1 sequence (P14416 whole entry): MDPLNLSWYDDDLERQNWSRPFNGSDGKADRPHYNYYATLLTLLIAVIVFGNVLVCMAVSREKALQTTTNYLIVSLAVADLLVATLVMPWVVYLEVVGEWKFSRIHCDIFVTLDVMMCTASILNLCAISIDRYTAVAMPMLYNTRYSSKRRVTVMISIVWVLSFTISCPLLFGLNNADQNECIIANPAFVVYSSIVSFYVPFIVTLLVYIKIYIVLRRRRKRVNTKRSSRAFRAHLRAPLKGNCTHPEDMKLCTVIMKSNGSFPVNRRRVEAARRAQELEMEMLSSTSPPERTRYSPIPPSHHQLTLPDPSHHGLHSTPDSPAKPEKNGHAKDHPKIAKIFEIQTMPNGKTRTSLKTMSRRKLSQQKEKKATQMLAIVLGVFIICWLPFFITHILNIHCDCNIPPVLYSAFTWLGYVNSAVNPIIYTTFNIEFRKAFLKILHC
Method in brief: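 After compound incubation, detection reagent (Buffer:Emerald II:Galactor-Star, 19:5:1) added and luminescence or fluorescence read.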

human D2R/β-arrestin [2] = molecular target: T1, human D2R/β-arrestin; assay: Gi/cAMP agonist assay (Lance Ultra cAMP, Forskolin); assay type: cell-based; settings: CHO-K1 cell line expressing human D2R/β-arrestin
Method in brief: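 Cells were plated and incubated before compounds were pin-transferred and incubated for 10 min at 37 °C. Forskolin was then added to stimulate cAMP. cAMP was detected by Lance Ultra TR-FRET using Eu-cAMP tracer and ULight-anti-cAMP antibody.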

human D2R/β-arrestin [3] = molecular target: T1, human D2R/β-arrestin; assay: cell-based; settings: β-arrestin Antagonist
Plasma stability, rat = assay type: in vitro ADME
[4] = Microsomal stability, mouse
[5] = Microsomal stability, human; assay type: in vitro ADME
Solubility in PBS = assay type: physicochemical; settings: aqueous buffer
human D2R/β-arrestin [6] = molecular target: T1, human D2R/β-arrestin; assay: cell-based; settings: cAMP Antagonist
Plasma stability, human = assay type: in vitro ADME
[7] = Microsomal stability, rat; assay type: in vitro ADME
D2 = D2 (Homo sapiens (Human), UniProt P14416); assay: D2 radioligand binding assay
Sequence of D2 (P14416 whole entry): as above

human D2R/β-arrestin [8] = molecular target: T1, human D2R/β-arrestin; settings: read-out: β-arrestin Antagonist
human D2R/β-arrestin [9] = molecular target: T1, human D2R/β-arrestin; settings: read-out: cAMP Antagonist
[10] = CHO-K1 cell line expressing human D2R/β-arrestin, quinpirole used as agonist

Structure (SMILES)	EC50 (human D2R/β-arrestin [1]) [nM]	EC50 (human D2R/β-arrestin [2]) [nM]	Microsomal Stability: % remaining after 60 minutes [4]	IC50 (human D2R/β-arrestin [8]) [nM]	IC50 (human D2R/β-arrestin [9]) [nM]	other results
O=C(NC(c1ccc(Cl)cc1)c1ccccn1)C1CCN(CCOc2ccc(C(F)(F)F)cc2)CC1 (stereo not drawn) [Compound 8, N-((4-chlorophenyl)(pyridin-2-yl)methyl)-1-(2-(4-(trifluoromethyl)phenoxy)ethyl) piperidine-4-carboxamide]	> 30000	10000 to 30000	53%			IC50 (human D2R/β-arrestin [3]; [10]): 10000 to 30000 nM; Plasma Stability: % remaining after 5 hours (Plasma stability, rat): 98.1%; Plasma Stability: % remaining after 5 hours (Plasma stability, mouse): 100%; Microsomal Stability: % remaining after 60 minutes [5]: 82%; solubility (Solubility in PBS): 1.1 µM (≈ 0.57 µg/mL); IC50 (human D2R/β-arrestin [6]; [10]): > 30000 nM; Plasma Stability: % remaining after 5 hours (Plasma stability, human): 100%; Microsomal Stability: % remaining after 60 minutes [7]: 100%
O=C(NC(c1ccc(Cl)cc1)c1ccccn1)C1CCN(CCOc2cccnc2)CC1 (stereo not drawn) [Compound 10]	> 30000	100 to 1000	44%			IC50 (human D2R/β-arrestin [3]; [10]): 10000 to 30000 nM; Microsomal Stability: % remaining after 60 minutes [5]: 75%; solubility (Solubility in PBS): > 500 µM; IC50 (human D2R/β-arrestin [6]; [10]): > 30000 nM; Microsomal Stability: % remaining after 60 minutes [7]: 57%
Clc1ccc(C(NCC2CCN(CCOc3ccccc3)CC2)c2ccccn2)cc1 (single isomer, unassigned) [Compound 114a, 1-(4-chlorophenyl)-N-((1-(2-phenoxyethyl)piperidin-4-yl)methyl)-1-(pyridin-2-yl)methanamine]	> 30000	100 to 1000				IC50 (human D2R/β-arrestin [3]; [10]): < 100 nM; Ki (D2): 100 to 1000 nM; IC50 (human D2R/β-arrestin [6]; [10]): < 100 nM
CC(C)N(CC1CCN(CCOc2ccccc2)CC1)C(c1ccc(Cl)cc1)c1ccccn1 (stereo not drawn) [Compound 103, N-((4-chlorophenyl)(pyridin-2-yl)methyl)-N-((1-(2-phenoxyethyl)piperidin-4-yl)methyl)propan-2-amine]	> 30000	< 100	m1%			IC50 (human D2R/β-arrestin [3]): < 100 nM; Plasma Stability: % remaining after 5 hours (Plasma stability, mouse): m97%; IC50 (human D2R/β-arrestin [6]): > 30000 nM
COc1ccccc1OCCN1CCC(C(=O)NC(c2ccc(Cl)cc2)c2ccccn2)CC1 (stereo not drawn) [Compound 109, N-((4-chlorophenyl) (pyridin-2-yl)methyl)-1-(2-(2-methoxyphenoxy)ethyl)piperidine-4-carboxamide]	> 30000	> 30000	40%			IC50 (human D2R/β-arrestin [3]; [10]): < 100 nM; Microsomal Stability: % remaining after 60 minutes [5]: 59%; solubility (Solubility in PBS): > 500 µM; IC50 (human D2R/β-arrestin [6]; [10]): < 100 nM; Microsomal Stability: % remaining after 60 minutes [7]: 57%
O=C(NC(c1cccc(F)c1)c1ccccn1)C1CCN(CCOc2ccccc2)CC1 (stereo not drawn) [Compound 27]	> 30000	100 to 1000		1000 to 10000	> 30000	
O=C(NC(c1ccc(Cl)cc1)c1ccccc1F)C1CCN(CCOc2ccccc2)CC1 (single isomer, unassigned) [Compound 40a, N((4-chlorophenyl)(2-fluorophenyl)methyl)-1-(2-phenoxyethyl) piperidine-4-carboxamide]	> 30000	> 30000		100 to 1000	100 to 1000	
COc1cccc(C(NC(=O)C2CCN(CCOc3ccccc3F)CC2)c2ccccn2)c1 (single isomer, unassigned) [Compound 22b, 1-(2-(2-fluorophenoxy)ethyl)-N-((3-methoxyphenyl)(pyridin-2-yl)methyl) piperidine-4-carboxamide]	> 30000	> 30000	m12%	100 to 1000	100 to 1000	
Fc1ccc(C(NCC2CCN(CCOc3ccccc3)CC2)c2ccccn2)cc1 (single isomer, unassigned) [Compound 78b, 1-(4-fluorophenyl)-N-((1-(2-phenoxyethyl)piperidin-4-yl)methyl)-1-(pyridin-2-yl)methanamine]	> 30000	> 30000				IC50 (human D2R/β-arrestin [8]; [10]): 1000 to 10000 nM; IC50 (human D2R/β-arrestin [9]; [10]): 1000 to 10000 nM
COc1cccc(C(NCC2CCN(CCOc3ccccc3F)CC2)c2ccccn2)c1 (stereo not drawn) [Compound 88, N-((1-(2-(2-fluorophenoxy)ethyl)piperidin-4-yl)methyl)-1-(3-methoxyphenyl)-1-(pyridin-2-yl)methanamine]	> 30000	< 100	m1%			IC50 (human D2R/β-arrestin [3]; [10]): 100 to 1000 nM; solubility (Solubility in PBS): 461 µM (≈ 207 µg/mL); IC50 (human D2R/β-arrestin [6]; [10]): 100 to 1000 nM
O=C(NC(c1cccc(OC(F)(F)F)c1)c1ccccn1)C1CCN(CCOc2ccccc2)CC1 (single isomer, unassigned) [Compound 118b, 1-(2-phenoxyethyl)-N-(pyridin-2-yl(3-(trifluoromethoxy)phenyl)methyl) piperidine-4-carboxamide]	> 30000	1000 to 10000	m35%	1000 to 10000	> 30000	
O=C(NC(c1ccc(F)cc1)c1ccccn1)C1CCN(CCOc2ccccc2F)CC1 (single isomer, unassigned) [Compound 54b, 1-(2-(2-fluorophenoxy)ethyl)-N-((4-fluorophenyl)(pyridin-2-yl)methyl) piperidine-4-carboxamide]	> 30000	100 to 1000		1000 to 10000	> 30000	
O=C(NC(c1ccc(F)cc1)c1ccccn1)C1CCN(CCOc2ccccc2F)CC1 (single isomer, unassigned) [Compound 54a, 1-(2-(2-fluorophenoxy)ethyl)-N-((4-fluorophenyl)(pyridin-2-yl)methyl) piperidine-4-carboxamide]	> 30000	> 30000		< 100	< 100	
O=C(NC(c1ccc(Cl)cc1)c1ccccn1)C1CCN(CCOc2ccccc2C(F)(F)F)CC1 (single isomer, unassigned) [Compound 6b]	> 30000	> 30000	m2%	< 100	< 100	
CC1(C(=O)NC(c2ccc(F)cc2)c2ccccn2)CCN(CCOc2ccccc2C(F)(F)F)CC1 (single isomer, unassigned) [Compound 70b, N-((4-fluorophenyl)(pyridin-2-yl)methyl)-4-methyl-1-(2-(2-(trifluoromethyl)phenoxy)ethyl) piperidine-4-carboxamide]	> 30000	< 100	m0%	1000 to 10000	> 30000	
O=C(NC(c1ccc(Cl)cc1)c1ccccn1)C1CCN(CCOc2cccc(F)c2)CC1 (single isomer, unassigned) [Compound 4b]	> 30000	> 30000		1000 to 10000	100 to 1000	
O=C(NC(c1ccc2c(c1)OCO2)c1ccccn1)C1CCN(CCOc2ccccc2F)CC1 (single isomer, unassigned) [Compound 95b, N-(benzo[d][1,3]dioxol-5-yl(pyridin-2-yl)methyl)-1-(2-(2-fluorophenoxy)ethyl) piperidine-4-carboxamide]	> 30000	1000 to 10000	m12%	100 to 1000	100 to 1000	
O=C(NC(c1ccccc1)c1ccc(F)cc1)C1CCN(CCOc2ccccc2)CC1 (single isomer, unassigned) [Compound 45b]	> 30000	100 to 1000		100 to 1000	100 to 1000	
O=C(NC(c1cccc(OC(F)(F)F)c1)c1ccccn1)C1CCN(CCOc2ccccc2)CC1 (single isomer, unassigned) [Compound 118a, 1-(2-phenoxyethyl)-N-(pyridin-2-yl(3-(trifluoromethoxy)phenyl)methyl) piperidine-4-carboxamide]	> 30000	10000 to 30000		10000 to 30000	> 30000	
O=C(NC(c1ccc2c(c1)OC(F)(F)O2)c1ccccn1)C1CCN(CCOc2ccccc2)CC1 (single isomer, unassigned) [Compound 119a]	> 30000	> 30000		1000 to 10000	1000 to 10000	
O=C(NC(c1ccc(Cl)cc1)c1ccccn1)C1CCN(CCOc2ccccc2C(F)(F)F)CC1 (single isomer, unassigned) [Compound 6a]	> 30000	> 30000	m31%	< 100	< 100	
O=C(NC(c1ccc(F)cc1)c1ccccn1)C1CCN(CCOc2ccccc2Cl)CC1 (single isomer, unassigned) [Compound 53b, 1-(2-(2-chlorophenoxy)ethyl)-N-((4-fluorophenyl)(pyridin-2-yl)methyl) piperidine-4-carboxamide]	> 30000	> 30000		100 to 1000	100 to 1000	
